Reference: patent US20250312327A1, “COMPOSITION FOR COMBINATION THERAPY, COMPRISING 2,3,5-SUBSTITUTED THIOPHENE COMPOUND” (PHAROS IBIO CO., LTD, priority 2021, published 2025)
Like-named read-outs stand apart in the source and are kept apart here.

Experiments:
Type in all cases: cell-based
[1] = system: MolM13 leukemia cell line; assay: CellTiter-Glo assay, drug administered alone; details: Homo sapiens
Procedure: (§1) The first and second tests were performed in triplicate on the above cell lines while reducing the concentration of venetoclax by half each time from 100 μM, and the third test was performed in triplicate on the BDCM cell line while reducing the concentration of venetoclax by half each time from 100 μM, and performed in triplicate on HL-60, MolM13, MolM14, and MV4-11 cell lines while reducing the concentration of venetoclax by half each time from 2.5 μM. The fourth test was performed in triplicate on HL-60, MolM13, MolM14, and MV4-11 cell lines while reducing the concentration by half each time from 2.5 μM.
(§2) Specifically, in the first and second tests, a 10-fold diluted solution was prepared by dissolving 50 μL of 10 mM venetoclax in 450 μL of solvent. 250 μL of the solution was serially diluted ½, an 8E-tube was filled with 250 μL of each dilution, and 80 μL of each cell line was dispensed into each well of a 96-well plate. Thereafter, 10 μL of each cell line was dispensed using JANUS and incubated for 72 hours under CO2. Celltiter-Glo assay was performed and then IC50 was calculated.
(§3) In the third test, for the BCDM cell line, a 10-fold diluted solution was prepared by dissolving 15 μL of 10 mM venetoclax in 135 μL of solvent. 100 μL of the solution was serially diluted ½, an 8E-tube was filled with 100 μL of each dilution, and the cell line was dispensed into a 96-well plate. Thereafter, 25 μL of the cell line was dispensed using JANUS and incubated for 72 hours under CO2. Celltiter-Glo assay was performed and then IC50 was calculated. Meanwhile, for the HL-60, MolM13, MolM14, and MV4-11 cell lines, a 10-fold diluted solution was prepared by dissolving […] of solvent. 200 μL of the solution was serially diluted ½, an 8E-tube was filled with 200 μL of each dilution, and each of the cell lines was dispensed into a 96-well plate. Thereafter, 60 μL of each cell line was dispensed using JANUS and incubated for 72 hours under CO2. Celltiter-Glo assay was performed and then IC50 was calculated.
(§4) The fourth test was performed on HL-60, MolM13, MolM14, and MV4-11 cell lines in the same manner as the third test.
(§5) The first and second tests were performed in triplicate on the above cell lines while reducing the concentration of 5-azacytidine by half each time from 100 μM. Specifically, in the first and second tests, a 10-fold diluted solution was prepared by dissolving 15 μL of 20 mM 5-azacytidine in 285 μL of solvent. 250 μL of the solution was serially diluted ½, an 8E-tube was filled with 250 μL of each dilution, and 80 μL of each cell line (3,000 cells) was dispensed into each well of a 96-well plate. Thereafter, 10 μL of each cell line was dispensed using JANUS and incubated for 72 hours under CO2. Celltiter-Glo assay was performed and then IC50 was calculated.
as §5, with “cytarabine” for “5-azacytidine”, “50,000” for “100”, “10” for “15”, “50” for “20”, “490” for “285”

HL-60 leukemia cell line [2] = assay: CellTiter-Glo assay, co-administration of PHI-101 and anticancer drug; details: PHI-101 at the minimum concentration, 5-azacytidine co-administration test
Procedure: (§6) Specifically, in the first and second tests, a 10-fold diluted solution was prepared by dissolving […] of solvent. 500 μL of the solution was serially diluted ½, an 8E-tube was filled with 500 μL of each dilution, and 90 μL of each cell line was dispensed into each well of a 96-well plate. Thereafter, 10 μL of each cell line was dispensed using JANUS and pretreated for 30 minutes under CO2. […] Next, the cells were incubated for 72 hours under CO2, Celltiter-Glo assay was performed and then IC50 was calculated.
(§7) In the third and fourth tests, a 10-fold diluted solution was prepared by dissolving 5 μL of 50 mM PHI-101 in 495 μL of solvent. 250 μL of the solution was serially diluted ½, an 8E-tube was filled with 250 μL of each dilution, and 60 μL of each cell line was dispensed into each well of a 96-well plate. Thereafter, 10 μL of each cell line was dispensed using JANUS and pretreated for 30 minutes under CO2. […] Next, the cells were incubated for 72 hours under CO2, Celltiter-Glo assay was performed and then IC50 was calculated.
(§8) Specifically, in the first and second tests, for BDCM, HL-60, THP-1, and U937 cell lines, a 10-fold diluted solution was prepared by dissolving 5 μL of 50 mM PHI-101 in 495 μL of solvent. […] Next, the cells were incubated for 72 hours under CO2, Celltiter-Glo assay was performed and then IC50 was calculated.

U937 leukemia cell line [3] = assay: as above; details: PHI-101 at the minimum concentration, 5-azacytidine co-administration test
Procedure: as §6, §7, §8

BDCM leukemia cell line [4] = assay: CellTiter-Glo assay, drug administered alone
HL-60 leukemia cell line [5] = assay: CellTiter-Glo assay, drug administered alone; details: Homo sapiens
[6] = system: MolM14 leukemia cell line; assay: CellTiter-Glo assay, drug administered alone; details: Homo sapiens, MOLM-14, PHI-101 administered alone
[7] = system: MV4-11 leukemia cell line; assay: CellTiter-Glo assay, drug administered alone; details: Homo sapiens, PHI-101 administered alone, Table 7
THP-1 leukemia cell line [8] = assay: CellTiter-Glo assay, drug administered alone; details: Homo sapiens
U937 leukemia cell line [9] = assay: CellTiter-Glo assay, drug administered alone; details: Homo sapiens
BDCM leukemia cell line [10] = assay: CellTiter-Glo assay, drug administered alone; details: 72 h, venetoclax alone
Procedure: as §1, §2, §3, §5
as §5, with “cytarabine” for “5-azacytidine”, “50,000” for “100”, “10” for “15”, “50” for “20”, “490” for “285”

HL-60 leukemia cell line [11] = assay: CellTiter-Glo assay, drug administered alone; details: Homo sapiens; remark: listed apart in the source
Procedure: as §1, §2, §3, §4, §5
as §5, with “cytarabine” for “5-azacytidine”, “50,000” for “100”, “10” for “15”, “50” for “20”, “490” for “285”

[12] = system: MV4-11 leukemia cell line; assay: CellTiter-Glo assay, drug administered alone; details: Homo sapiens
Procedure: as §1, §2, §3, §4, §5
as §5, with “cytarabine” for “5-azacytidine”, “50,000” for “100”, “10” for “15”, “50” for “20”, “490” for “285”

[13] = system: MolM14 leukemia cell line; assay: CellTiter-Glo assay, drug administered alone; details: Homo sapiens
Procedure: as §1, §2, §3, §4, §5
as §5, with “cytarabine” for “5-azacytidine”, “50,000” for “100”, “10” for “15”, “50” for “20”, “490” for “285”

THP-1 leukemia cell line [14] = assay: CellTiter-Glo assay, drug administered alone; details: Homo sapiens, THP-1, 72 h, venetoclax alone
Procedure: as §1, §2, §5
as §5, with “cytarabine” for “5-azacytidine”, “50,000” for “100”, “10” for “15”, “50” for “20”, “490” for “285”

U937 leukemia cell line [15] = assay: CellTiter-Glo assay, drug administered alone; details: Homo sapiens, U-937, 72 h, venetoclax alone
Procedure: as §1, §2, §5
as §5, with “cytarabine” for “5-azacytidine”, “50,000” for “100”, “10” for “15”, “50” for “20”, “490” for “285”

[16] = venetoclax administered alone, Table 7, read-out: IC50 Venetoclax

With NC(=O)Nc1cc(C#Cc2cccc(F)c2)sc1C(=O)N[C@H]1CCCNC1 [PHI-101, (S)-5-((3-fluorophenyl)ethynyl)-N-(piperidin-3-yl)-3-ureido-thiophene-2-carboxamide] the IC50 ([1]; PHI-101 administered alone, MolM 13, Table 7, read-out: IC50 PHI-101) was 1 nM, the inhibitory activity (HL-60 leukemia cell line [2]) was ≤ 50% and the inhibitory activity (U937 leukemia cell line [3]) was ≤ 50%. The IC50 (BDCM leukemia cell line [4]; PHI-101 administered alone, Table 7, read-out: IC50 PHI-101) was 950 nM, the IC50 (BDCM leukemia cell line [4]; PHI-101 administered alone, Table 10, read-out: IC50 PHI-101) was 230 nM and the IC50 (BDCM leukemia cell line [4]; PHI-101 administered alone, Table 13, read-out: IC50 PHI-101) was 230 nM. For the same compound, the IC50 (HL-60 leukemia cell line [5]; HL-60, PHI-101 administered alone, Table 7, read-out: IC50 PHI-101) was 2080 nM, the IC50 (HL-60 leukemia cell line [5]; HL-60, PHI-101 administered alone, Table 10, read-out: IC50 PHI-101) was 2200 nM and the IC50 (HL-60 leukemia cell line [5]; HL-60, PHI-101 administered alone, Table 13, read-out: IC50 PHI-101) was 1100 nM. The IC50 ([6]; Table 7) was 8 nM, the IC50 ([6]; Table 10) was 8 nM and the IC50 ([6]; Table 13) was 4 nM. It also gave an IC50 [7] of 1 nM, an IC50 (THP-1 leukemia cell line [8]; THP-1, PHI-101 administered alone, Table 7, read-out: IC50 PHI-101) of 1530 nM and an IC50 (THP-1 leukemia cell line [8]; THP-1, PHI-101 administered alone, Table 10, read-out: IC50 PHI-101) of 735 nM. It also gave an IC50 (THP-1 leukemia cell line [8]; THP-1, PHI-101 administered alone, Table 13, read-out: IC50 PHI-101) of 735 nM, an IC50 (U937 leukemia cell line [9]; U-937, PHI-101 administered alone, Table 7, read-out: IC50 PHI-101) of 1250 nM and an IC50 (U937 leukemia cell line [9]; U-937, PHI-101 administered alone, Table 10, read-out: IC50 PHI-101) of 3400 nM. For the same compound, the IC50 (U937 leukemia cell line [9]; U-937, PHI-101 administered alone, Table 13, read-out: IC50 PHI-101) was 850 nM.

CC1(C)CCC(CN2CCN(c3ccc(C(=O)NS(=O)(=O)c4ccc(NCC5CCOCC5)c([N+](=O)[O-])c4)c(Oc4cnc5[nH]ccc5c4)c3)CC2)=C(c2ccc(Cl)cc2)C1 [Venetoclax] was tested, and the IC50 (BDCM leukemia cell line [10]; read-out: IC50 First test) was 12200 nM, the IC50 (BDCM leukemia cell line [10]; read-out: IC50 Second test) was 9860 nM and the IC50 (BDCM leukemia cell line [10]; read-out: IC50 Third test) was 12800 nM. For the same compound, the IC50 (HL-60 leukemia cell line [11]; HL-60, 72 h, venetoclax alone, 72 hours, read-out: IC50 First test) was 353 nM, the IC50 (HL-60 leukemia cell line [11]; HL-60, 72 h, venetoclax alone, 72 hours, read-out: IC50 Fourth test) was 276 nM and the IC50 (HL-60 leukemia cell line [11]; HL-60, 72 h, venetoclax alone, 72 hours, read-out: IC50 Second test) was 210 nM. For the same compound, the IC50 (HL-60 leukemia cell line [11]; HL-60, 72 h, venetoclax alone, 72 hours, read-out: IC50 Third test) was 283 nM, the IC50 (HL-60 leukemia cell line [11]; HL-60, venetoclax alone, read-out: IC50) was ≤ 1000 nM and the IC50 [12, 16] was 13.7 nM. The IC50 ([12]; venetoclax alone, 72 hours, read-out: IC50 First test) was 6.8 nM, the IC50 ([12]; venetoclax alone, 72 hours, read-out: IC50 Fourth test) was 14.1 nM and the IC50 ([12]; venetoclax alone, 72 hours, read-out: IC50 Second test) was 8.7 nM. The IC50 ([12]; venetoclax alone, 72 hours, read-out: IC50 Third test) was 21.9 nM, the IC50 ([12]; venetoclax alone, read-out: IC50) was ≤ 1000 nM and the IC50 ([1]; MOLM-13, venetoclax alone, MolM13, 72 hours, read-out: IC50 First test) was 1.8 nM. The IC50 ([1]; MOLM-13, venetoclax alone, MolM13, 72 hours, read-out: IC50 Fourth test) was 10.3 nM, the IC50 ([1]; MOLM-13, venetoclax alone, MolM13, 72 hours, read-out: IC50 Second test) was 12.5 nM and the IC50 ([1]; MOLM-13, venetoclax alone, MolM13, 72 hours, read-out: IC50 Third test) was 8.6 nM. The IC50 ([1]; MOLM-13, venetoclax alone, MolM13, read-out: IC50) was ≤ 1000 nM, the IC50 ([1]; venetoclax administered alone, MolM 13, Table 7, read-out: IC50 Venetoclax) was 14.6 nM and the IC50 ([13]; MOLM-14, 72 h, venetoclax alone, MolM14, 72 hours, read-out: IC50 First test) was 172 nM. For the same compound, the IC50 ([13]; MOLM-14, 72 h, venetoclax alone, MolM14, 72 hours, read-out: IC50 Fourth test) was 219 nM, the IC50 ([13]; MOLM-14, 72 h, venetoclax alone, MolM14, 72 hours, read-out: IC50 Second test) was 415 nM and the IC50 ([13]; MOLM-14, 72 h, venetoclax alone, MolM14, 72 hours, read-out: IC50 Third test) was 147 nM. For the same compound, the IC50 ([13]; MOLM-14, venetoclax administered alone, MolM 14, Table 7, read-out: IC50 Venetoclax) was 283 nM, the IC50 ([13]; MOLM-14, venetoclax alone, MolM14, read-out: IC50) was ≤ 1000 nM and the IC50 (THP-1 leukemia cell line [14]; read-out: IC50 First test) was 12500 nM. It also gave an IC50 (THP-1 leukemia cell line [14]; read-out: IC50 Second test) of 12500 nM, an IC50 (U937 leukemia cell line [15]; read-out: IC50 First test) of 7310 nM and an IC50 (U937 leukemia cell line [15]; read-out: IC50 Second test) of 8320 nM. For the same compound, the IC50 (BDCM leukemia cell line [4]; [16]) was 11000 nM, the IC50 (HL-60 leukemia cell line [5]; HL-60, venetoclax administered alone, Table 7, read-out: IC50 Venetoclax) was 275 nM and the IC50 (THP-1 leukemia cell line [8]; THP-1, venetoclax administered alone, Table 7, read-out: IC50 Venetoclax) was 12500 nM. The IC50 (U937 leukemia cell line [9]; U-937, venetoclax administered alone, Table 7, read-out: IC50 Venetoclax) was 7800 nM.
